Data published in patent US20230157996A1, “SMALL-MOLECULE INHIBITOR TARGETING EB VIRUS NUCLEAR ANTIGEN PROTEIN, PREPARATION METHOD AND USE THEREOF” (priority 2020, published 2023).

The molecules below were run on C666-1 cells (assay: C666-1 cell viability single concentration (50 μM) inhibition rate (Resazurin)). Settings: Homo sapiens, C6661, 72 h, 50 μM compound, 72 hours, C666-1 cells; read-out: C666-1 cell viability single concentration (50 μM) inhibition rate, Ratio* (Inh %).
Format: cell-based
Procedure: In order to assess the effect of the EBNA1 inhibitor at the cellular level, the cell proliferation inhibition rate was tested, and the inhibition rate of inhibitor at a specific concentration on the proliferation of Epstein-Barr virus positive cell line C666-1 was detected.
In the test, 100 μL C666-1 cells were inoculated in a transparent 96-well plate, and each well contained 5×10^3 cells. After the cells were cultured in an incubator with 5% carbon dioxide at 37° C. for 24 hours, 10 μL compound at a concentration of 500 μmol/L was added into the cells, so that the final concentration of the compound was 50 μmol/L. Two replicate wells were set for each compound, the wells treated with DMSO were set as control wells (Ctrl), and the wells with cell culture medium only were set as blank wells (blank), and they were treated in the incubator with carbon dioxide at 37° C. for 72 hours. The cell viability was assessed using a redox indicator Resazurin. Specifically, 10 μL Resazurin at a concentration of 600 umol/L was added into each well, and incubated at 37° C. for 3 hours, and a Tecan microplate reader was used to detect the fluorescence signal at an excitation wavelength of 560 nm and an emission wavelength of 590 nm. The formula inh %=1−(F−Fblank)/(FCtrl−Fblank)×100% (where, F is the fluorescence intensity of the compound-added wells, FCtrl and Fblank are the readings of the control wells and blank wells, respectively) was used to calculate the inhibition rate of the compound on the proliferation of C666-1 cells, so as to assess the activity of the compound on Epstein-Barr virus positive cells.
O=C(O)c1cccc(N2CC(Oc3ccc(OC(F)(F)F)cc3)C2)c1-n1cccc1 [Compound 84, 2-(1H-pyrrol-1-yl)-3-(3-(4-(trifluoromethoxy)phenoxy)azetidin-1-yl)benzoic acid] showed an inhibition at 50 µM of less than 10%. O=C(O)c1cccc(-c2cn(-c3ccc(CO)cc3)nn2)c1-c1ccc2cc[nH]c2c1 [Example 186, 3-(1-(4-(hydroxymethyl)phenyl)-1H-1,2,3-triazol-4-yl)-2-(1H-indol-6-yl)benzoic acid] showed an inhibition at 50 µM of less than 10%. In the case of CC(=O)NCc1ccc(OC2CN(c3cccc(C(=O)O)c3-n3cccc3)C2)cc1 [Compound 77, 3-(3-(4-(acetylaminomethyl)phenoxy)azetidin-1-yl)-2-(1H-pyrrol-1-yl)benzoic acid], the inhibition at 50 µM is reported as less than 10%. CCCCOc1ccc(OC2CN(c3cccc(C(=O)OC)c3-n3cccc3)C2)cc1 [Example 107, Methyl 3-(3-(4-butoxyphenoxy)azetidin-1-yl)-2-(1H-pyrrol-1-yl)benzoate] was tested, and the inhibition at 50 µM was less than 10%. O=C(Nc1ccc(OC(F)(F)F)cc1)Nc1cccc(OC2CN(c3cccc(C(=O)O)c3-n3cccc3)C2)c1 [Example 296, 3-(3-(3-(3-(4-(trifluoromethoxy)phenyl)ureido)phenoxy)azetidin-1-yl)-2-(1H-pyrrol-1-yl)benzoic acid] gave an inhibition at 50 µM of less than 10%. With O=C(O)c1cccc(N2CC3(CN(c4ccccc4[N+](=O)[O-])C3)C2)c1-n1cccc1 [Compound 22, 3-(6-(2-nitrophenyl)-2,6-diazaspiro[3.3]heptan-2-yl)-2-(1H-pyrrol-1-yl)benzoic acid] the inhibition at 50 µM was less than 10%. Molecule CC(=O)NCCOc1ccc(OC2CN(c3cccc(C(=O)O)c3-n3cccc3)C2)cc1 [Example 313, 3-(3-(4-(2-acetylaminoethoxy)phenoxy)azetidin-1-yl)-2-(1H-pyrrol-1-yl)benzoic acid] has an inhibition at 50 µM of less than 10%. Work on COC(=O)c1cccc(N2CC(S(=O)(=O)c3ccc(C(C)C)cc3)C2)c1-n1cccc1 [Example 353, Methyl 3-(3-((4-isopropylphenyl)sulfonyl)azetidin-1-yl)-2-(1H-pyrrol-1-yl)benzoate] yielded an inhibition at 50 µM of 10 to 30%. With COC(=O)c1cccc(N2CC(Oc3ccc(CO)cc3)C2)c1-c1ccc2nsnc2c1 [Compound 45, Methyl 2-(benzo[c][1,2,5]thiadiazol-5-yl)-3-(3-(4-(hydroxymethyl)phenoxy)azetidin-1-yl)benzoate] the inhibition at 50 µM was 10 to 30%. COCCOCc1ccc(OC2CN(c3cccc(C(=O)O)c3-n3cccc3)C2)cc1 [Example 371] gave an inhibition at 50 µM of 10 to 30%. O=C(O)c1ccc(N2CC3(C2)CN(c2cccc(C(=O)O)c2-n2cccc2)C3)cc1 [Compound 24, 3-(6-(4-carboxylphenyl)-2,6-diazaspiro[3.3]heptan-2-yl)-2-(1H-pyrrol-1-yl)benzoic acid] gave an inhibition at 50 µM of less than 10%. COC(=O)c1cccc(N2CC(Oc3ccc(Oc4cccc(C(C)=O)c4)cc3)C2)c1-n1cccc1 [Example 293, Methyl 3-(3-(4-(3-acetylphenoxy)phenoxy)azetidin-1-yl)-2-(1H-pyrrol-1-yl)benzoate] gave an inhibition at 50 µM of 10 to 30%. For COC(=O)c1cccc(N2CC3(CN(c4ccccc4)C3)C2)c1-n1cccc1 [Example 274, Methyl 3-(6-phenyl-2,6-diazaspiro[3.3]heptan-2-yl)-2-(1H-pyrrol-1-yl)benzoate], the inhibition at 50 µM was less than 10%. With O=C(O)c1cccc(N2CC(Oc3cc(Cl)nc(Cl)c3)C2)c1-n1cccc1 [Compound 92, 3-(3-((2,6-dichloropyridin-4-yl)oxy)azetidin-1-yl)-2-(1H-pyrrol-1-yl)benzoic acid] the inhibition at 50 µM was less than 10%. With O=C(Nc1ccc(Oc2ccccc2)cc1)NC1CN(c2cccc(C(=O)O)c2-n2cccc2)C1 [Example 167, 3-(3-(3-(4-phenoxyphenyl)ureido)azetidin-1-yl)-2-(1H-pyrrol-1-yl)benzoic acid] the inhibition at 50 µM was less than 10%. In the case of O=C(O)c1cccc(N2CC(Oc3ccc(Oc4ccccc4)c(F)c3)C2)c1-n1cccc1 [Example 201, 3-(3-(3-fluoro-4-phenoxyphenoxy)azetidin-1-yl)-2-(1H-pyrrol-1-yl)benzoic acid], the inhibition at 50 µM is reported as 30 to 50%. COC(=O)c1cccc(N2CC(Oc3ccc(N(C)C)cc3)C2)c1-n1cccc1 [Example 97, Methyl 3-(3-(4-(dimethylamino)phenoxy)azetidin-1-yl)-2-(1H-pyrrol-1-yl)benzoate] showed an inhibition at 50 µM of 10 to 30%. O=C(O)c1cccc(-c2c(C(=O)O)cccc2N2CC(Oc3ccc(CO)cc3)C2)c1 [Compound 56] was tested, and the inhibition at 50 µM was less than 10%. In the case of CS(=O)(=O)c1ccc(Oc2ccc(OC3CN(c4cccc(C(=O)O)c4-n4cccc4)C3)cc2)cc1 [Example 213, 3-(3-(4-(4-(methylsulfonyl)phenoxy)phenoxy)azetidin-1-yl)-2-(1H-pyrrol-1-yl)benzoic acid], the inhibition at 50 µM is reported as less than 10%. O=C(O)c1cccc(C23CC(c4ccccc4)(C2)C3)c1 [Compound 4, 3-(3-phenylbicyclo[1.1.1]pentan-1-yl)benzoic acid] was tested, and the inhibition at 50 µM was less than 10%. COC(=O)c1cccc(N2CC3(CN(c4cccc(NC(C)=O)c4)C3)C2)c1N [Compound 29, Methyl 3-(6-(3-acetylaminophenyl)-2,6-diazaspiro[3.3]heptan-2-yl)-2-aminobenzoate] was tested, and the inhibition at 50 µM was 10 to 30%. For COC(=O)c1cccc(N2CC(Oc3ccc([N+](=O)[O-])cc3)C2)c1-n1cccc1 [Example 286, Methyl 3-(3-(4-nitrophenoxy)azetidin-1-yl)-2-(1H-pyrrol-1-yl)benzoate], the inhibition at 50 µM was 10 to 30%. O=C(O)c1cccc(N2CC(Oc3ccc(Cl)cc3)C2)c1-n1cccc1 [Compound 96, 3-(3-(4-chlorophenoxy)azetidin-1-yl)-2-(1H-pyrrol-1-yl)benzoic acid] was tested, and the inhibition at 50 µM was less than 10%. COC(=O)c1cccc(N2CC(Oc3ccc(CO)cc3)C2)c1-c1ccc(F)c(C#N)c1 [Compound 68, Methyl 3′-cyano-4′-fluoro-6-(3-(4-(hydroxymethyl)phenoxy)azetidin-1-yl)-[1,1′-biphenyl]-2-formate] showed an inhibition at 50 µM of 10 to 30%. Molecule COC(=O)c1cccc(N2CC(Sc3ccccc3)C2)c1-n1cccc1 [Example 351, Methyl 3-(3-(phenylthio)azetidin-1-yl)-2-(1H-pyrrol-1-yl)benzoate] has an inhibition at 50 µM of less than 10%. For CS(=O)(=O)Nc1cccc(N2CC3(C2)CN(c2cccc(C(=O)O)c2[N+](=O)[O-])C3)c1 [Compound 28, 3-(6-(3-(methylsulfonamido)phenyl)-2,6-diazaspiro[3.3]heptan-2-yl)-2-nitrobenzoic acid], the inhibition at 50 µM was less than 10%. Work on COC(=O)c1cccc(N2CC(Oc3ccc(Oc4ccccc4)cc3)C2)c1-n1cccc1 [Example 111, Methyl 3-(3-(4-phenoxyphenoxy)azetidin-1-yl)-2-(1H-pyrrol-1-yl)benzoate] yielded an inhibition at 50 µM of less than 10%. For COC(=O)c1cccc(N2CC(Oc3ccc(COc4cncc(F)c4)cc3)C2)c1-n1cccc1 [Example 358, Methyl 3-(3-(4-(((5-fluoropyridin-3-yl)oxy)methyl)phenoxy)azetidin-1-yl)-2-(1H-pyrrol-1-yl)benzoate], the inhibition at 50 µM was 10 to 30%. Work on COC(=O)c1cccc(N2CC(Oc3ccc(CO)cc3)C2)c1-c1cccc(Cl)c1 [Compound 53, Methyl 3′-chloro-6-(3-(4-(hydroxymethyl)phenoxy)azetidin-1-yl)-[1,1′-biphenyl]-2-formate] yielded an inhibition at 50 µM of 10 to 30%. Molecule O=C(O)c1cccc(N2CC(Oc3ccc(CO)cc3)C2)c1-c1cccc(F)c1 [Compound 51] has an inhibition at 50 µM of less than 10%. Molecule COC(=O)c1cccc(N2CC(N(Cc3ccccc3)S(=O)(=O)c3ccc(C)cc3)C2)c1-n1cccc1 [Example 184, Methyl 3-(3-((N-benzyl-4-methylphenyl)sulfonamido)azetidin-1-yl)-2-(1H-pyrrol-1-yl)benzoate] has an inhibition at 50 µM of less than 10%. COC(=O)c1cccc(N2CC(Oc3cccc(CO)c3)C2)c1-n1cccc1 [Example 297, Methyl 3-(3-(3-(hydroxymethyl)phenoxy)azetidin-1-yl)-2-(1H-pyrrol-1-yl)benzoate] showed an inhibition at 50 µM of 30 to 50%. In the case of CS(=O)(=O)NC(=O)c1cccc(N2CC(Oc3ccc(CO)cc3)C2)c1-n1cccc1 [Example 369, N-methylsulfonyl-(3-(3-(4-(hydroxymethyl)phenoxy)azetidin-1-yl)-2-(1H-pyrrol-1-yl))benzamide], the inhibition at 50 µM is reported as less than 10%. COC(=O)c1cccc(N2CC3(CN(c4cccc(N)c4)C3)C2)c1N [Compound 33, Methyl 2-amino-3-(6-(3-aminophenyl)-2,6-diazaspiro[3.3]heptan-2-yl)benzoate] was tested, and the inhibition at 50 µM was 10 to 30%. N#Cc1cccc(NC(=O)Nc2ccc(OC3CN(c4cccc(C(=O)O)c4-n4cccc4)C3)cc2)c1 [Example 138, 3-(3-(4-(3-(3-cyanophenyl)ureido)phenoxy)azetidin-1-yl)-2-(1H-pyrrol-1-yl)benzoic acid] was tested, and the inhibition at 50 µM was less than 10%. Cc1ccc(S(=O)(=O)N(Cc2ccccc2)C2CN(c3cccc(C(=O)O)c3-n3cccc3)C2)cc1 [Example 185, 3-(3-((N-benzyl-4-methylphenyl)sulfonamido)azetidin-1-yl)-2-(1H-pyrrol-1-yl) benzoic acid] was tested, and the inhibition at 50 µM was less than 10%. COC(=O)c1cccc(N2CC(OC(=O)NC3CCCCC3)C2)c1-n1cccc1 [Example 149, Methyl 3-(3-((cyclohexylcarbamoyl)oxy)azetidin-1-yl)-2-(1H-pyrrol-1-yl)benzoate] was tested, and the inhibition at 50 µM was 10 to 30%.
